Laboratory results: article PMC4418665, “Cyclization of the Urokinase Receptor-Derived Ser-Arg-Ser-Arg-Tyr Peptide Generates a Potent Inhibitor of Trans-Endothelial Migration of Monocytes” (PLoS ONE, 2015)
Peptide text beside a SMILES is read from it.

What was measured:
[1] = Serum stability in human serum (RP-HPLC); assay type: in vitro ADME; settings: 37°C, peptide 10^-2 mol/L, acetonitrile precipitation; for remaining at 1 h: RP-HPLC C18, % of concentration at time 0, read-out: residual concentration after one hour of exposure to serum; for remaining at 24 h: RP-HPLC C18, % of concentration at time 0, read-out: residual concentration after 24 hours in serum
Protocol: Cyclization of peptides listed in Table 1was obtained as described in the Material and Methods, using the strategy depicted in the S1 Fig. The stability of the linear peptide Ser-Arg-Ser-Arg-Tyr (SRSRY) and cyclized peptide Ser-Arg-Ser-Arg-Tyr [SRSRY] in human serum was investigated through incubation of the peptide at a 10^–2 mol/L in human serum and samples were taken at different time points and analysed by Reversed-phase chromatography (RP-HPLC). Serum-dependent degradation of peptides was monitored for up to 24 hours.
Fig 1 Stability of SRSRY and [SRSRY] peptides in human serum. The stability of [SRSRY] and SRSRY was performed by the injection of the peptide at a 10^–2 mol/L in human serum at 37°C. Intervals of analysis by RP-HPLC on the compound incubated in serum were carried out growing with time from 1 to 24 hours. Values are expressed as a percentage of peptide concentration assessed at time 0. [SRSRY]
The stability of SRSRY and [SRSRY] was investigated in human serum. The peptides were incubated at 37°C in human serum at a concentration of 10^-2mol/L. Aliquots ([…]) of serum were removed at time points varying from 0, 1, 2, 4, 6, and 24 hours and acetonitrile ([…]) was added to each aliquot before centrifuging (13000 rpm, 15 min). Aliquots ([…]) of the supernatant were then analyzed by RP-HPLC after passing through Phenomenex Luna 100A C18 5μ, linear gradient from 0–90% acetonitrile in water over 25 minutes.

FPR1 = biological target: T1, FPR1 (Homo sapiens, UniProt P21462); assay: Agonist-dependent FPR1 internalization at 37°C, fluorescence microscopy, RBL-2H3/ETFR cells; assay type: cell-based; design: expressed in transfected cells; settings: 100 nM peptide 30 min at 37°C, then 10 nM FITC-fMLF 30 min at 37°C
T1 sequence (P21462 1-350): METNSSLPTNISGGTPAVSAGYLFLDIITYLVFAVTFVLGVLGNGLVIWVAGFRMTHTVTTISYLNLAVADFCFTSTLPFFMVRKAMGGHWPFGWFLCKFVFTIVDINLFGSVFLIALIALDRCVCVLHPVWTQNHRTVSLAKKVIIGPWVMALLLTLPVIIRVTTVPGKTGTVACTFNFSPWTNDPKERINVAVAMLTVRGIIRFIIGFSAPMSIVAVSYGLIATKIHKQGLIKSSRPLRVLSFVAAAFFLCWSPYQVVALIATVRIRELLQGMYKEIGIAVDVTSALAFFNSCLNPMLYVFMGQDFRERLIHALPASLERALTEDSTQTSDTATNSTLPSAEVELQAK
Protocol: We have previously documented that SRSRY competes with the bacterial-derived N-formyl-methionyl-leucyl-phenylalanine peptide (fMLF) for binding to FPR type 1 (FPR1) and that both SRSRY and fMLF promote cell migration by triggering FPR1 internalization. […] Quantification of cell-associated fluorescence was assessed by reading cell lysates with a fluorescence plate reader. RBL-2H3 cells lack FPR1, thus they display very low uptake that was not saturable with unlabeled fMLF (Fig 2A). […] To evaluate the effect of [SRSRY] on agonist-dependent FPR1 internalization, binding experiments were performed at 37°C. […] Thus, we assessed whether [SRSRY] elicits effects on fMLF-directed cell migration. RBL-2H3/ETFR cell migration toward 10 nM fMLF was monitored in real-time for 4 hours as Cell Index changes due to the adhesion of migrating cells to microelectrodes using the xCELLigence RTCA technology as previously described. […]
Fig 2 Both linear and cyclic SRSRY peptides bind to FPR1. […] Fluorimetric measurement of cell-associated fluorescence was assed using 485 nm excitation and 535 nm emission filters. Data are expressed as a percentage of the fluorescence associated to RBL-2H3 cells exposed to FITC-fMLF alone (CTL = 100%) and represent a mean ± SD from triplicates. *Statistical significance (t-test) against None with p<0.001. […] Cell migration of RBL-2H3/ETFR cells monitored by the xCELLigence system. […]

N=C(N)NCCC[C@@H]1NC(=O)[C@H](CO)NC(=O)[C@H](Cc2ccc(O)cc2)NC(=O)[C@H](CCCNC(=N)N)NC(=O)[C@H](CO)NC1=O [[SRSRY], [Ser-Arg-Ser-Arg-Tyr]] (cyclo(RSRYS))
remaining at 1 h [1]: < 85%
remaining at 24 h [1]: > 80%
agonist-dependent FPR1 internalization in RBL-2H3/ETFR cells (FPR1): prevented agonist-dependent FPR1 internalization

N=C(N)NCCC[C@H](NC(=O)[C@H](CO)NC(=O)[C@H](CCCNC(=N)N)NC(=O)[C@@H](N)CO)C(=O)N[C@@H](Cc1ccc(O)cc1)C(N)=O [SRSRY, H-Ser-Arg-Ser-Arg-Tyr-NH2] (H-SRSRY-NH2)
remaining at 1 h [1]: < 75%
remaining at 24 h [1]: < 50%
agonist-dependent FPR1 internalization in RBL-2H3/ETFR cells (FPR1): prevented
